Test results reported in ChEMBL document CHEMBL1145608, “Selective androgen receptor modulators based on a series of 7H-[1,4]oxazino[3,2-g]quinolin-7-ones with improved in vivo activity” (Bioorg Med Chem Lett, 2008).
Calls of active or inactive are those of the source. The rule behind the calls is not given here.

What was measured:
Androgen receptor [1] = molecular target: T1, Androgen receptor (Homo sapiens, UniProt P10275)
T1 sequence (P10275 whole entry): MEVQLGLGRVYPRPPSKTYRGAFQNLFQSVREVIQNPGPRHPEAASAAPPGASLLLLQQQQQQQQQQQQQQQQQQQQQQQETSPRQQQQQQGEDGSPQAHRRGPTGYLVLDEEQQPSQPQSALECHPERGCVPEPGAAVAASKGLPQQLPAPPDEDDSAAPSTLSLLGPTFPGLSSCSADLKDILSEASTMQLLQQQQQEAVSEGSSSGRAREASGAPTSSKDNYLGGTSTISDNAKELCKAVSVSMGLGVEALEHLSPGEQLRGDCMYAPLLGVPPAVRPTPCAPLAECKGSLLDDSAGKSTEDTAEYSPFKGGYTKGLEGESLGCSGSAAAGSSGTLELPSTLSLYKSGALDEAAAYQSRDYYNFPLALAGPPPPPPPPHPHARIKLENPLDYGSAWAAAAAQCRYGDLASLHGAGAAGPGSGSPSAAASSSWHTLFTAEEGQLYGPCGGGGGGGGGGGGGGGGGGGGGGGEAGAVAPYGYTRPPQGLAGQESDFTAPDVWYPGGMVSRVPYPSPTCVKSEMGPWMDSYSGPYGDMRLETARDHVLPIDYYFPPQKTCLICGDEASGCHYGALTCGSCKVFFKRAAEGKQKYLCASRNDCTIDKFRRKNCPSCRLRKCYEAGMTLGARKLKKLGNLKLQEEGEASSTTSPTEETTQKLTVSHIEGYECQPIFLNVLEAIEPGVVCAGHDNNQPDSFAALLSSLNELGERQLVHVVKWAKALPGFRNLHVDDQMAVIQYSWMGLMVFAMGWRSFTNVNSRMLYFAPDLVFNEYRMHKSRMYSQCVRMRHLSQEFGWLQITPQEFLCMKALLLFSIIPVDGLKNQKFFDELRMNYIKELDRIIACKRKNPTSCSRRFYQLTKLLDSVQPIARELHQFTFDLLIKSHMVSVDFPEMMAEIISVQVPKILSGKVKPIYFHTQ
Description: Agonist activity at human androgen receptor in CV1 cells by transcriptional activation assay

Androgen receptor [2] = molecular target: T1, Androgen receptor; test: biochemical
Description: Displacement of [3H]DHT from human Androgen receptor in human MDA-MB-453 cells

Androgen receptor [3] = molecular target: T1, Androgen receptor; remark: listed apart in the source
Description: Antagonist activity at human androgen receptor in CV1 cells by transcriptional activation assay

[4] = Metabolic stability in rat liver microsome at 5 uM; assay type: ADME; conditions: liver microsomes
Rattus norvegicus [5] = test: Effect on Levator ani muscle weight maintenance in orchidectomized Sprague-Dawley rat at 10 mg/kg, po; assay type: functional, organism-based; design: dose 10 mg/kg
Rattus norvegicus [6] = test: Effect on Levator ani muscle weight maintenance in orchidectomized Sprague-Dawley rat at 3 mg/kg, po; assay type: functional, organism-based; design: dose 3 mg/kg

| Structure (SMILES) | EC50 (Androgen receptor [1]) [µM] | Ki (Androgen receptor [2]) [µM] | IC50 (Androgen receptor [3]) [µM] | half-life at 5 µM [4] [h] | Activity (Rattus norvegicus [5]) | Activity (Rattus norvegicus [6]) |
| --- | --- | --- | --- | --- | --- | --- |
| O=c1cc(C(F)(F)F)c2cc3c(cc2[nH]1)OCC(C(F)(F)F)N3CC(F)(F)F (racemic) | 0.0059 | 0.0083 |  |  |  |  |
| O=c1cc(C(F)(F)F)c2cc3c(cc2[nH]1)OC[C@H](c1ccccc1)N3CC(F)(F)F |  | 0.15 | 0.34 |  |  |  |
| Cc1ccc([C@@H]2COc3cc4[nH]c(=O)cc(C(F)(F)F)c4cc3N2CC(F)(F)F)cc1 | 0.036 |  |  |  |  |  |
| CSCC1COc2cc3[nH]c(=O)cc(C(F)(F)F)c3cc2N1CC(F)(F)F (racemic) | 0.028 |  | 0.025 |  |  |  |
| COC[C@H]1COc2cc3[nH]c(=O)cc(C(F)(F)F)c3cc2N1CC(F)(F)F | 0.077 | 0.109 | 0.017 |  |  |  |
| CCCOCC1COc2cc3[nH]c(=O)cc(C(F)(F)F)c3cc2N1CC(F)(F)F (racemic) | 0.0042 |  |  |  |  |  |
| O=c1cc(C(F)(F)F)c2cc3c(cc2[nH]1)OC[C@@H](c1ccccc1)N3CC(F)(F)F | 0.0053 | 0.0013 |  |  |  |  |
| O=c1cc(C(F)(F)F)c2cc3c(cc2[nH]1)OCC(C(F)F)N3CC(F)(F)F (racemic) | 0.0013 | 0.0066 |  |  |  |  |
| O=c1cc(C(F)(F)F)c2cc3c(cc2[nH]1)OC[C@@H](CO)N3CC(F)(F)F | 0.011 | 0.015 | 0.06 |  |  |  |
| CCOCC1COc2cc3[nH]c(=O)cc(C(F)(F)F)c3cc2N1CC(F)(F)F (racemic) | 0.0032 |  |  |  |  |  |
| O=c1cc(C(F)(F)F)c2cc3c(cc2[nH]1)OC[C@H](CF)N3CC(F)(F)F | 0.0038 | 0.0026 |  | 0.567 | Active |  |
| O=c1cc(C(F)(F)F)c2cc3c(cc2[nH]1)OC[C@@H](C(F)(F)F)N3CC(F)(F)F | 0.042 | 0.281 | 0.034 |  |  |  |
| O=c1cc(C(F)(F)F)c2cc3c(cc2[nH]1)OC[C@@H](CC(F)(F)F)N3CC(F)(F)F | 0.023 | 0.018 |  |  |  |  |
| Cc1cccc([C@@H]2COc3cc4[nH]c(=O)cc(C(F)(F)F)c4cc3N2CC(F)(F)F)c1 | 0.019 | 0.0011 |  |  |  |  |
| Cc1cccc([C@H]2COc3cc4[nH]c(=O)cc(C(F)(F)F)c4cc3N2CC(F)(F)F)c1 |  | 0.18 | 0.574 |  |  |  |
| N#CCC1COc2cc3[nH]c(=O)cc(C(F)(F)F)c3cc2N1CC(F)(F)F (racemic) | 0.03 | 0.018 |  |  |  |  |
| CSCC[C@@H]1COc2cc3[nH]c(=O)cc(C(F)(F)F)c3cc2N1CC(F)(F)F | 0.023 | 0.0024 |  |  |  |  |
| Cc1ccc([C@H]2COc3cc4[nH]c(=O)cc(C(F)(F)F)c4cc3N2CC(F)(F)F)cc1 |  |  | 0.044 |  |  |  |
| O=c1cc(C(F)(F)F)c2cc3c(cc2[nH]1)OC[C@@H](CF)N3CC(F)(F)F | 0.035 | 0.032 | 0.199 |  |  |  |
| COC[C@@H]1COc2cc3[nH]c(=O)cc(C(F)(F)F)c3cc2N1CC(F)(F)F | 0.002 | 0.0094 |  |  |  |  |
| O=c1cc(C(F)(F)F)c2cc3c(cc2[nH]1)OC[C@@H](Cc1ccccc1)N3CC(F)(F)F |  |  | 0.051 |  |  |  |
| O=c1cc(C(F)(F)F)c2cc3c(cc2[nH]1)OC[C@H](C(F)(F)F)N3CC(F)(F)F | 0.002 | 0.0059 |  | 1.67 |  | Active |
| O=c1cc(C(F)(F)F)c2cc3c(cc2[nH]1)OC[C@H](CO)N3CC(F)(F)F | 0.0066 | 0.022 | 0.165 |  |  |  |
